“Also recorded” adds a separate entry of the source.
How the values were obtained:
[1] = test system: glomeruli of SCID mice; experiment: Glomerular IgG deposition (IHC and IF), SCID mice; format: in vivo; details: i.v., anti-dsDNA IgG mixed with D-form ALW before injection, n = 5, versus anti-dsDNA IgG alone
Text: Renal biopsies were obtained from patients with LN (n = 7), who had serum positivity of anti-dsDNA IgG (Table S1 in Supplementary Material). The diagnosis of LN was made based on the histological features of renal biopsies. For normal human controls, sera and non-lesional tissues were taken from patients (n = 5) who underwent surgical nephrectomy due to renal cell carcinoma or renal rupture (Table S1 in Supplementary Material). There was no statistical difference in term of age between the LN patients and the controls (p > 0.05). […] The MRL/lpr and MRL/MpJ mice (female, 12 or 24 weeks old, n = 5 each group) as well as SCID mice (female, 8 weeks old, n = 5 each group) were bred in the animal facility of Xi’an Jiaotong University Health Science Center. Urine, sera, and renal tissues were harvested from MRL/lpr and MRL/MpJ mice. Proteinuria was quantitated by the Coomassie brilliant blue method ([32]). All data about MRL/lpr and MRL/MpJ mice referred to that at age of 24 weeks unless otherwise noted. These SCID mice received intravenous injections of anti-dsDNA or control IgG at a dose of 100 µg twice weekly, which lasted for 4 weeks (n = 5 each group). Then, both serum and kidney samples were collected from SCID mice. This study was carried out in accordance with the recommendations of the guidelines of the Hospital Research Ethics Committee with written informed consent from all subjects. […]

[2] = test system: glomerular endothelial cells; experiment: Cell viability (PrestoBlue), glomerular endothelial cells; format: cell-based, murine; details: D-form ALW 1 µg/ml, 2 days
Experimental: (§1) By using a HiTrap purification kit (GE Healthcare, Port Washington, NY, USA) ([8]), anti-dsDNA IgG was purified from the culture supernatants of murine WJ31 hydridoma clone (IgG2a; Jieqing Biotech). Control murine IgG (IgG2a; Jieqing Biotech) was verified by enzyme-linked immunosorbent assay (ELISA) to determine that there was no binding to DNA antigen (data not shown). Cells were starved routinely before the 2-day stimulation of anti-dsDNA IgG or control IgG (2 µg/ml). In some experiments, mesangial cells were stimulated with anti-dsDNA IgG (2 µg/ml) that was premixed with D-form (ALWPPNLHAWVP) or scrambled (PLPHNPWVLAAW) ALW peptide (1 µg/ml). The cell viability of three types of cells was measured using PrestoBlue viability reagent (Life Technologies, Carlsbad, CA, USA).
Mesangial Glomerular Tubular cells endothelial epithelial
Supplementary Figure S7. Cell viability assays of kidney cells. (A) Murine cells were cultured in vitro, and received control or anti-dsDNA IgG stimulation (2 µg/ml, 2 days). (B) Similarly, these cells were also stimulated with scrambled or D-form ALW peptide (1 µg/ml, 2 days). The cell viability was measured using PrestoBlue viability reagent. Data were from three independent experiments. Data points and error bars […]
(also on this page, place not known: µ g/ml,2 µ g/ml,2 Cell viability (%) Cell viability (%))

[3] = test system: anti-dsDNA IgG; experiment: MALDI-TOF MS, catalysis of peptide by anti-dsDNA IgG; set-up: species or system murine; details: peptide 2 µg/ml with IgG (molar ratio = 1:5), 37°C, 30 min, triplicate, versus L-form ALW
Experimental: Matrix-assisted laser desorption/ionization–time of flight mass spectrometry was performed for identifying the sequences of peptide fragments. As described previously ([36]), an ABI 4800 Analyzer (AB Science, Foster City, CA, USA) was used for such analysis. The ALW (L-form or D-form) and KIR peptides (2 µg/ml) were mixed with anti-dsDNA IgG or control IgG (molar ratio = 1:5), respectively. The mixtures were incubated at 37°C for 30 min. Then, these samples were diluted in distilled water (1:100) and then mixed with the α-cyano-4-hydroxycinnamic acid matrix at a ratio of 1:1. Samples in triplicate were then loaded to the MALDI target. Mass spectrum was produced on 80 individual spectra of each spot.

[4] = test system: mesangial cells; experiment: Real-time PCR, mesangial cells; format: cell-based, murine; details: anti-dsDNA IgG 2 µg/ml premixed with peptide 1 µg/ml, 2 days
Experimental: Immortal murine mesangial cells and glomerular endothelial cells (Jieqing Biotech, Wuhan, China) were cultured in RPMI 1640 medium supplemented with 10% fetal bovine serum ([8], [33]). Immortal murine proximal tubular epithelial cells (kindly provided by Dr. Cheng Pan, Wuhan University, China) were cultured in Dulbecco’s modified Eagle’s medium as described previously ([34]).
as §1
As previously described ([8]), total RNA was extracted from fresh tissues or cultured cells, followed by reverse transcription. The 7900HT Fast PCR System (Applied Biosystems, Carlsbad, CA, USA) was used for PCR, and SYBR Green Master Mixes (Invitrogen, Grand Island, NY, USA) was used as fluorescent dye. The sequences of primers (Jieqing Biotech) are listed in Table S2 in Supplementary Material.

**Q.** For “ALWPPNLHAWVP [D-form ALW, ALW peptide with two terminal residues A and P replaced with D-form ones]”, which “glomerular IgG deposition, ALW plus anti-dsDNA IgG” value [1] is on record?
**A.** less IgG deposition; also recorded: significant reduction

**Q.** What about the cell viability [2] of the same sequence?
**A.** no changes

**Q.** And the “resistance to catalysis by anti-dsDNA IgG” value [3]?
**A.** enhanced resistance to catalysis

**Q.** And the “CTGF mRNA expression level, ALW plus anti-dsDNA IgG” value [4]?
**A.** significantly reduced

**Q.** What about the “Fn14 mRNA expression level, ALW plus anti-dsDNA IgG” value [4] of the same sequence?
**A.** significantly reduced

**Q.** And the “JAK2 mRNA level, ALW plus anti-dsDNA IgG” value [4]?
**A.** decreased

**Q.** What about the “PDGFB mRNA expression level, ALW plus anti-dsDNA IgG” value [4] of the same sequence?
**A.** significantly reduced

**Q.** And the “SOCS1 mRNA expression level, ALW plus anti-dsDNA IgG” value [4]?
**A.** did not affect

**Q.** What about the “STAT1 mRNA level, ALW plus anti-dsDNA IgG” value [4] of the same sequence?
**A.** decreased

From publication PMC5449454, “Anti-Double-Stranded DNA IgG Participates in Renal Fibrosis through Suppressing the Suppressor of Cytokine Signaling 1 Signals” (Frontiers in Immunology, 2017)
